Test [1] relates to Faecalibacterium prausnitzii strain ATCC27768. Description: Faecalibacterium proliferative effect in vitro: culture turbidity with oligosaccharide added. The note with it: for turbidity (OD value) at 660 nm: oligosaccharide 5.0 g/L, 37° C., anaerobic. The class given is cell-based. The procedure: Liquid media of the following composition was prepared sterile. 1-Kestose (purity of 99% by mass, B Food Science Co., Ltd.), nystose (purity of 98% by mass, Wako Pure Chemical Industries, Ltd.), xylooligosaccharide (purity of 99% by mass, B Food Science Co., Ltd.), raffinose (purity of 98% by mass, Meiji Food Materia Co., Ltd.) and lactosucrose (purity of 89% by mass, Ensuiko Sugar Refining Co., Ltd.) were used as oligosaccharides. Moreover, a liquid medium of the following composition with no oligosaccharide was also prepared as a control.
[Composition of Liquid Medium/Per L] (Final pH: 7.0)
Casein digest 15.0 g, yeast extract 5.0 g, L-cystine 0.5 g, sodium chloride 2.5 g, thioglycolic acid 0.5 g, tryptophan 25 mg, hemin proper quantity, vitamin K1 proper quantity, oligosaccharide 5.0 g.
A prepared liquid medium was inoculated with Faecalibacterium prausnitzii strain ATCC27768 precultured until confluent to a turbidity with an OD (Optical Density) value at 660 nm of 0.05 to 0.06. The inoculated culture was cultured statically at 37° C. in anaerobic environment and the turbidity (OD value) at 660 nm was measured with a spectrophotometer 24 hours, 48 hours, and 72 hours later. Moreover, the relation between OD value and the duration of culture is illustrated in a line graph of FIG. 1. Moreover, OD values at a duration of time of 72 hours are illustrated in a bar graph of FIG. 2.

Another test deals with Faecalibacterium. Nature of the test: Faecalibacterium proliferative effect in vivo: cell number in feces of infants by real-time PCR. Also on record: species or system human (infants). The conditions noted are these: for mean number of cells of Faecalibacterium (log10) / mean number of cells of Faecalibacterium per g feces: infants, oral, daily 1-3 g; for Significant difference (vs 0 week): Wilcoxon signed rank test; for cell number of Faecalibacterium over study period (in words): 12-week study. From the text: 58 infants from 6 months old to 6 years old were divided into 2 groups of 29 infants and they were designated 1-Kestose Group and Maltose Group. 1-Kestose Group took 1-kestose (purity 98% by mass or more, B Food Science Co., Ltd.) orally and Maltose Group took maltose (purity of 92% by mass or more, “Sunmalt-S” powder, Sanwa Starch Co., Ltd.) orally every day during the study period. The test period was 12 weeks. The daily intake of 1-kestose or maltose was 1 g (estimated intake; 0.121 g/kg body weight/day) for infants under 1 year old, 2 g (estimated intake; 0.169 g/kg body weight/day) for infants from 1 to 3 years old, and 3 g (estimated intake; 0.170 g/kg body weight/day) for infants from 4 to 6 years old. […] The estimated intake mentioned above was calculated based on the age-specific body weight data published in “2010 National growth survey on preschool children of the Ministry of Health, Labour and Welfare”. More specifically, the male and female medians were separately calculated from the minimums and the maximums of the body weight data within the age ranges of the study participants of Example 2 and the means of the medians were calculated. Subsequently, the male and female means of the means of the medians were calculated as estimated body weights. The estimated body weights were 8.26 kg for under 1 year old, 11.85 kg for 1 to 3 years old, and 17.62 kg for 4 to 6 years old. […] The numbers of cells of Faecalibacterium in the recovered feces were quantified by real-time PCR. Specifically, genomic DNA was first extracted from the feces using the reagent for genome extraction “Ultra Clean Soil DNA Isolation Kit” (Mo Bio Laboratories Inc.) and “High Pure PCR Template Preparation Kit” (Roche). […] The standard curve was generated based on the result of real-time PCR performed under the same conditions using genomic DNA extracted in the same way from Faecalibacterium prausnitzii strain ATCC27768 strain cultured in pure culture and counted under a microscope. The mean of cell numbers was calculated for each group.
In general terms: Real-time PCR tracks product formation cycle by cycle.

Each structure is given as a SMILES string.

The values below come from patent US20190070204A1, “PROLIFERATIVE AGENT FOR FAECALIBACTERIUM” (B FOOD SCIENCE CO., LTD., priority 2016, published 2019).

Take `OC[C@H]1O[C@@](CO)(OC[C@@]2(O[C@H]3O[C@H](CO)[C@@H](O)[C@H](O)[C@H]3O)O[C@H](CO)[C@@H](O)[C@@H]2O)[C@@H](O)[C@@H]1O` [1-kestose]: the “OD values versus control and other oligosaccharides (in words)” value in test [1] (24 hours, 48 hours and 72 hours) is listed as “markedly greater”. The “turbidity (OD value) at 660 nm” value amounted to 0.063 in test [1] (duration of culture 0 hour), 0.345 in test [1] (duration of culture 24 hours), 0.885 in test [1] (duration of culture 48 hours) and 1.803 in test [1] (duration of culture 72 hours). In addition, the entries for the “mean number of cells of Faecalibacterium (log10)” value (from here on “mean number of cells … (log10)”) with Faecalibacterium (0 week), with Faecalibacterium (6 weeks) and with Faecalibacterium (12 weeks) were 6.57 cells log10/g feces, 7.16 cells log10/g feces and 7.54 cells log10/g feces, respectively. Also, the “mean number of cells of Faecalibacterium per g feces” value (“mean number of cells … per g feces” below) in the test on Faecalibacterium (0 week) was 3.7 × 10^6 cells/g feces; with Faecalibacterium (6 weeks), 1.4 × 10^7 cells/g feces; with Faecalibacterium (12 weeks), 3.5 × 10^7 cells/g feces. For the same molecule, the “increase of cell number from 0 weeks” value in the test on Faecalibacterium (6 weeks) is on record as at least 3.5 times; with Faecalibacterium (12 weeks), at least 9 times. Also, the “Significant difference (vs 0 week)” value in the test on Faecalibacterium (6 weeks) is reported as “Not found”; in the test with Faecalibacterium (12 weeks), “Found”. In addition, the “cell number of Faecalibacterium over study period (in words)” value with Faecalibacterium is recorded as “increased markedly”.

As to `OC[C@H]1O[C@H](O[C@H]2[C@H](O)[C@@H](O)C(O)O[C@@H]2CO)[C@H](O)[C@@H](O)[C@@H]1O` (mixture of isomers) [Maltose, maltose], in the test with Faecalibacterium (0 week), the “mean number of cells … (log10)” value is reported as 6.88 cells log10/g feces and the “mean number of cells … per g feces” value is on record as 7.6 × 10^6 cells/g feces. In the test with Faecalibacterium (6 weeks), the “change of cell number from 0 weeks (in words)” value is reported as “slightly decreased”, the “Significant difference (vs 0 week)” value was “Not found”, the “mean number of cells … (log10)” value is 6.77 cells log10/g feces and the “mean number of cells … per g feces” value is 5.8 × 10^6 cells/g feces. In the test with Faecalibacterium, the “cell number of Faecalibacterium over study period (in words)” value is listed as “did not increase”. Moreover, in the test on Faecalibacterium (12 weeks), the “change of cell number from 0 weeks (in words)” value is given as “slightly increased”, the “Significant difference (vs 0 week)” value was “Not found”, the “mean number of cells … (log10)” value is on record as 7.12 cells log10/g feces and the “mean number of cells … per g feces” value is given as 1.3 × 10^7 cells/g feces.

Regarding `OC[C@H]1O[C@@](CO)(OC[C@@]2(OC[C@@]3(O[C@H]4O[C@H](CO)[C@@H](O)[C@H](O)[C@H]4O)O[C@H](CO)[C@@H](O)[C@@H]3O)O[C@H](CO)[C@@H](O)[C@@H]2O)[C@@H](O)[C@@H]1O` [Nystose, nystose], the “turbidity (OD value) at 660 nm” value in test [1] (duration of culture 0 hour) was found to be 0.063; in test [1] (duration of culture 24 hours), 0.290; in test [1] (duration of culture 48 hours), 0.443; in test [1] (duration of culture 72 hours), 0.305.

For the molecule `OC[C@H]1O[C@@H](O[C@H]2[C@H](O)[C@@H](O)[C@@H](O[C@]3(CO)O[C@H](CO)[C@@H](O)[C@@H]3O)O[C@@H]2CO)[C@H](O)[C@@H](O)[C@H]1O` [Lactosucrose, lactosucrose], the “turbidity (OD value) at 660 nm” value in test [1] (duration of culture 0 hour) is reported as 0.055; in test [1] (duration of culture 24 hours) it was 0.298; in test [1] (duration of culture 48 hours), 0.448; in test [1] (duration of culture 72 hours), 0.295.

Take `OC[C@H]1O[C@H](OC[C@H]2O[C@H](O[C@]3(CO)O[C@H](CO)[C@@H](O)[C@@H]3O)[C@H](O)[C@@H](O)[C@@H]2O)[C@H](O)[C@@H](O)[C@H]1O` [Raffinose, raffinose]: the “turbidity (OD value) at 660 nm” value is 0.052 in test [1] (duration of culture 0 hour), 0.251 in test [1] (duration of culture 24 hours), 0.191 in test [1] (duration of culture 48 hours) and 0.246 in test [1] (duration of culture 72 hours).
